Data on four compounds can be found in US6387893B1, “Spirotricyclic substituted azacycloalkane derivatives and uses thereof” (Merck & Co., Inc., priority 1999, dated 2002).

In series [1] the target is T1, human alpha 1a adrenergic receptor (Homo sapiens, UniProt P35348).
T1 sequence (P35348 1-466): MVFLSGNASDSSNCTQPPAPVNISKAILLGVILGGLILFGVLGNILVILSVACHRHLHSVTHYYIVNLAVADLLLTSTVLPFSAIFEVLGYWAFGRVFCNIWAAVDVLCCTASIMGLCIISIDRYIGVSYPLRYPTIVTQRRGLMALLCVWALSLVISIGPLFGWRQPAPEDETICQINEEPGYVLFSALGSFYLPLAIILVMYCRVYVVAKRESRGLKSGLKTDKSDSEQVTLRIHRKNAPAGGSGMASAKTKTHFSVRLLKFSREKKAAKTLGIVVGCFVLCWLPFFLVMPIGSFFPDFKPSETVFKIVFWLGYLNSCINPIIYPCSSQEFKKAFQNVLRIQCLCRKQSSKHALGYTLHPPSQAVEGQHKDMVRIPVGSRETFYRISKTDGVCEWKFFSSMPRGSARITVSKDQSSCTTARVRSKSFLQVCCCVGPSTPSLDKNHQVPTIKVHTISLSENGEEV
Briefly: Screening assay: alpha 1a adrenergic receptor binding ([125I]-HEAT competition). The following applies: membranes from stably transfected human alpha 1a cell line (ATCC CRL 11140), 100 pM [125I]-HEAT. How it is done:
Screening Assay: Alpha 1a Adrenergic Receptor Binding
Membranes prepared from the stably transfected human alpha 1a cell line (ATCC CRL 11140) were used to identify compounds that bind to the human alpha 1a adrenergic receptor. These competition binding reactions (total volume=200 μl) contained 50 mM Tris-HCl pH. 7.4, 5 mM EDTA, 150 mM NaCl, 100 pM [^125I]-HEAT, membranes prepared from the alpha 1a cell line and increasing amounts of unlabeled ligand. Reactions were incubated at room temperature for one hour with shaking. Reactions were filtered onto Whatman GF/C glass fiber filters with a Inotec 96 well cell harvester. Filters were washed three times with ice cold buffer and bound radioactivity was determined (Ki).

Broadly, the melting point is the temperature, or range, at which the solid turns liquid. What is called Ki is the dissociation constant of the complex between target and ligand, obtained from inhibition or displacement.

Counter-ions that a name gives are not always drawn.

On to `COCC1=C(C(=O)OC)[C@H](c2ccc(F)c(F)c2)N(C(=O)NCCCN2CCC3(CC2)c2ccccc2-c2cccnc23)C(=O)N1` (as salt: hydrochloride) [Example 53, 1,2,3,6-tetrahydro-1-[3-((spiro(9H-indeno[2,1-b]pyridine)-9,4′-piperidin)-1′-yl)propylaminocarbonyl]-5-methoxycarbonyl-4-methoxymethyl-6(S)-(3,4-difluorophenyl)-2-oxopyrimidine], for which the melting point fell in the range of 201 to 209 °C.
The compound `O=C(NCCCN1CCC2(CC1)c1ccccc1CCc1ccccc12)N1C(=O)OC[C@@H]1c1ccc(F)c(F)c1` (as salt: hydrochloride) [Example 57, 1′-{3-[4(S)-(3,4-difluorophenyl)-2-oxooxazolidin-3-carbonylamino]-propyl}-(10,11-dihydrospiro-5H-dibenzo[a,d]cycloheptene)-5,4′-piperidine] came in with a melting point of 146 to 177 °C.
`O=C1OC[C@H](c2ccc(F)c(F)c2)N1CCCCCN1CCC2(CC1)c1ccccc1CCc1ccccc12` (as salt: hydrochloride) [Example 58, 1′-{5-[4(S)-(3,4-difluorophenyl)-2-oxooxazolidin-3-yl]-pentyl}-(10,11-dihydrospiro-5H-dibenzo[a,d]cycloheptene)-5,4′-piperidine] gave a melting point of 232 to 236 °C.
With `O=C(NCCCN1CCC2(CC1)c1ccccc1Oc1ccccc12)N1C(=O)OC[C@@H]1c1ccc(F)c(F)c1` [Example 35, 1′-{3-[(4S)-(3,4-Difluorophenyl)-2-oxooxazolidin-3-carbonylamino]propyl}spiroxanthene-9,4′-piperidine], the melting point fell in the range of 138 to 139 °C. Moreover, the inhibitory constant (Ki) in series [1] was less than 20 nM.
